Measurements as given in PubChem BioAssay AID1259411 (Chemical Carcinogenesis Research Information System (CCRIS), 2018).
Activity calls are given as the source filed them. No rule for the calls is given here.

System: rodent carcinogenicity bioassays, tumor incidence
Test: CCRIS carcinogenicity studies
Procedure, shortened: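 NCI-built, expert-reviewed records of carcinogenicity and related test outcomes (mutagenicity, tumor promotion/inhibition) compiled from published and report sources, historical span 1985-2011, not updated.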

CCCN(COC(C)=O)N=O
carcinogen call (Species: RAT, Strain/Sex: F344/FEMALE, Route: SUBCUTANEOUS, Dose: 6.1 MG/KG 1/WK FOR 10 WK, Tumor Site: Type of Lesion: INJECTION SITE: MALIGNANT FIBROUS HISTIOCYTOMA, LUNG: ADENOMA, ADENOCARCINOMA OR SQUAMOUS CELL CARCINOMA, THYROID GLAND:, Tumor Site: Type of Lesion: INJECTION SITE: MALIGNANT FIBROUS HISTIOCYTOMA, LUNG: ADENOMA, ADENOCARCINOMA OR SQUAMOUS CELL CARCINOMA, THYROID GLAND:): active; positive
carcinogen call (Species: RAT, Strain/Sex: F344/MALE, Route: SUBCUTANEOUS, Dose: 6.1 MG/KG 1/WK FOR 10 WK, Tumor Site: Type of Lesion: INJECTION SITE: MALIGNANT FIBROUS HISTIOCYTOMA, LUNG: ADENOMA, ADENOCARCINOMA OR SQUAMOUS CELL CARCINOMA): active; positive

CCN(Cc1cccc(S(=O)(=O)O)c1)c1ccc(C(=C2C=CC(=[N+](CC)Cc3cccc(S(=O)(=O)O)c3)C=C2)c2ccc(O)cc2S(=O)(=O)[O-])cc1
carcinogen call (Species: MOUSE, Strain/Sex: SWISS-WEBSTER/FEMALE, Route: DERMAL, Dose: 0, 1% IN 0.1 ML DISTILLED WATER 1/WK FOR 19.5 MO (STUDY DURATION: 19.5 MO)): inactive; negative
carcinogen call (Species: MOUSE, Strain/Sex: SWISS-WEBSTER/MALE, Route: DERMAL, Dose: 0, 1% IN 0.1 ML DISTILLED WATER 1/WK FOR 19.5 MO (STUDY DURATION: 19.5 MO)): inactive; negative
carcinogen call (Species: RAT, Strain/Sex: FISCHER/FEMALE, Route: SUBCUTANEOUS, Dose: 0, 0.5 ML OF 3% SOLUTION IN DISTILLED WATER (0; 15 MG) 2/WK FOR 26 WK THEN 1/WK FOR 22 WK (STUDY DURATION: 11 MO), Dose: 0, 0.5 ML OF 3% SOLUTION IN DISTILLED WATER (0; 15 MG) 2/WK FOR 26 WK THEN 1/WK FOR 22 WK (STUDY DURATION: 11 MO), Tumor Site: Type of Lesion: INJECTION SITE: FIBROSARCOMA): active; positive
carcinogen call (Species: RAT, Strain/Sex: FISCHER/FEMALE, Route: SUBCUTANEOUS, Dose: 0, 0.5 ML OF 6% SOLUTION IN DISTILLED WATER (0; 30 MG) 2/WK FOR 19 WK THEN 3% SOLUTION (0; 15 MG) 2/WK FOR 9 WK FOLLOWED, Dose: 0, 0.5 ML OF 6% SOLUTION IN DISTILLED WATER (0; 30 MG) 2/WK FOR 19 WK THEN 3% SOLUTION (0; 15 MG) 2/WK FOR 9 WK FOLLOWED, Tumor Site: Type of Lesion: INJECTION SITE: FIBROSARCOMA): active; positive

CC1CN(N=O)CO1 (stereo not drawn)
carcinogen call (Species: HAMSTER, Strain/Sex: SYRIAN/MALE, Route: INTRAGASTRIC, Dose: 0, 25 MG/ML IN 0.2 ML STERILIZED WATER 1/WK FOR 24 WK (TOTAL DOSE 120 MG) (STUDY DURATION: LIFESPAN), Tumor Site: Type of Lesion: LIVER: HEPATOCELLULAR CARCINOMA, ADENOMA, HEMANGIOSARCOMA, CHOLANGIOCARCINOMA, PANCREAS: DUCTAL CARCINOMA): active; positive
carcinogen call (Species: RAT, Strain/Sex: F344/FEMALE, Route: ORAL, Dose: 40 MG/L IN DRINKING WATER FOR 50 WK, Tumor Site: Type of Lesion: LIVER: HEPATOCELLULAR CARCINOMA, HEMANGIOENDOTHELIAL SARCOMA): active; positive

C[C@H]1C(=O)O[C@@H]2CCN3CC=C(COC(=O)[C@](C)(O)[C@]1(C)O)[C@H]23
carcinogen call (Species: RAT, Route: ORAL, Tumor Site: Type of Lesion: LIVER): active; positive

O=C([O-])CN(CC(=O)[O-])CC(=O)[O-].[Cu+2]
carcinogen call (Species: RAT, Strain/Sex: WISTAR/MALE, Route: INTRAPERITONEAL, Tumor Site: Type of Lesion: KIDNEY: RENAL CELL CARCINOMA): active; positive

O=C1NS(=O)(=O)c2ccccc21
carcinogen call (Species: MONKEY, Strain/Sex: AFRICAN GREEN, RHESUS, CYNOMOLGUS, HYBRID/MALE, FEMALE, Route: ORAL, Dose: 0, 25 MG/KG BW IN FOOD 5 D/WK FOR DURATION OF STUDY (STUDY DURATION: 24 YR)): inactive; negative
carcinogen call (Species: RAT, Strain/Sex: ANALBUMINEMIC/MALE, Route: ORAL, Dose: 0, 5% IN DIET FOR 80 WK (STUDY DURATION: 80 WK)): inactive; negative
carcinogen call (Species: RAT, Strain/Sex: SPRAGUE-DAWLEY/MALE, Route: ORAL, Dose: 0, 5% IN DIET FOR 80 WK (STUDY DURATION: 80 WK)): inactive; negative

O/N=c1\ccn(O)c2ccccc12
carcinogen call (Species: MOUSE, Strain/Sex: DDD/FEMALE, Route: SUBCUTANEOUS, Dose: 53 NMOL IN 0.1 ML OLIVE OIL WITHIN 24 HR AFTER BIRTH (STUDY DURATION: 400 D), Tumor Site: Type of Lesion: LUNG: ADENOMA, INJECTION SITE: SARCOMA, HEMATOPOIETIC SYSTEM: LEUKEMIA OR LYMPHOSARCOMA, Tumor Site: Type of Lesion: LUNG: ADENOMA, INJECTION SITE: SARCOMA, HEMATOPOIETIC SYSTEM: LEUKEMIA OR LYMPHOSARCOMA): active; positive
carcinogen call (Species: RAT, Strain/Sex: BUFFALO/FEMALE, Route: GAVAGE, Dose: 1 MG/0.1 ML OR 2 MG/0.2 ML IN 60% ETHANOL SOLUTION 1/3 WK (TOTAL DOSE: 30 MG) (STUDY DURATION: 610 D), Tumor Site: Type of Lesion: GLANDULAR STOMACH: MUCOSAL CARCINOMA, MAMMARY GLAND: TUMOR, THYMUS GLAND: THYMOMA, Tumor Site: Type of Lesion: GLANDULAR STOMACH: MUCOSAL CARCINOMA, MAMMARY GLAND: TUMOR, THYMUS GLAND: THYMOMA): active; positive

CC(O)CN(CC(C)O)N=O (stereo not drawn)
carcinogen call (Species: HAMSTER, Strain/Sex: SYRIAN/MALE,FEMALE, Route: SUBCUTANEOUS, Dose: 40 MG/KG IN SALINE ONCE, Tumor Site: Type of Lesion: PANCREAS: ADENOMA, ADENOCARCINOMA, INTRADUCTAL CARCINOMA): active; positive
carcinogen call (Species: HAMSTER, Strain/Sex: SYRIAN/MALE, Route: SUBCUTANEOUS, Dose: 25, 125, 250 MG/KG 1/WK FOR LIFE, Dose: 25, 125, 250 MG/KG 1/WK FOR LIFE, Tumor Site: Type of Lesion: PANCREAS, NASAL CAVITY, LUNG, LIVER, TRACHEA, LARYNX, Tumor Site: Type of Lesion: PANCREAS, NASAL CAVITY, LUNG, LIVER, TRACHEA, LARYNX): active; positive
carcinogen call (Species: HAMSTER, Strain/Sex: SYRIAN/MALE, Route: SUBCUTANEOUS, Dose: 250, 500, 1000 MG/KG IN OLIVE OIL 1/WK FOR 20 WK, Dose: 250, 500, 1000 MG/KG IN OLIVE OIL 1/WK FOR 20 WK, Tumor Site: Type of Lesion: PANCREAS: ADENOCARCINOMA): active; positive
carcinogen call (Species: HAMSTER, Strain/Sex: SYRIAN/MALE, Route: SUBCUTANEOUS, Dose: 250 MG/KG IN OLIVE OIL 1/WK FOR 25 WK, Tumor Site: Type of Lesion: PANCREAS: ADENOCARCINOMA): active; positive
carcinogen call (Species: MOUSE, Strain/Sex: ICR/FEMALE, Route: SUBCUTANEOUS, Dose: 0, 25, 50, 100 MG/KG BW ONCE ON DAYS 1 AND 8 OF AGE (STUDY DURATION: 50 WK), Dose: 0, 25, 50, 100 MG/KG BW ONCE ON DAYS 1 AND 8 OF AGE (STUDY DURATION: 50 WK), Tumor Site: Type of Lesion: LUNG: TUMOR, LIVER: TUMOR): active; positive
carcinogen call (Species: MOUSE, Strain/Sex: ICR/MALE, Route: SUBCUTANEOUS, Dose: 0, 25, 50, 100 MG/KG BW ONCE ON DAYS 1 AND 8 OF AGE (STUDY DURATION: 50 WK), Dose: 0, 25, 50, 100 MG/KG BW ONCE ON DAYS 1 AND 8 OF AGE (STUDY DURATION: 50 WK), Tumor Site: Type of Lesion: LUNG: TUMOR, LIVER: TUMOR): active; positive
carcinogen call (Species: MOUSE, Strain/Sex: STRAIN-DD/MALE, Route: ORAL, Dose: 100, 250, 500, 1000 PPM IN DRINKING WATER (DAILY INTAKE: 6.3-34.2 MG), Dose: 100, 250, 500, 1000 PPM IN DRINKING WATER (DAILY INTAKE: 6.3-34.2 MG), Tumor Site: Type of Lesion: LUNG: ADENOMA, ADENOCARCINOMA, LIVER: HEMANGIOMA, HEMANGIOENDOTHELIOMA, HEMANGIOENDOTHELIAL SARCOMA): active; positive
carcinogen call (Species: RAT, Strain/Sex: SPRAGUE-DAWLEY/FEMALE, Route: ORAL, Dose: 106 MG/L IN DRINKING WATER 5 DAY/WK FOR 30 WK (TOTAL DOSE: 318 MG), Tumor Site: Type of Lesion: LIVER: HEPATOCELLULAR CARCINOMA, CHOLANGIOCARCINOMA, HEMANGIOENDOTHELIAL SARCOMA): active; positive
carcinogen call (Species: RAT, Strain/Sex: SPRAGUE-DAWLEY/FEMALE, Route: ORAL, Dose: 108 MG/L IN DRINKING WATER 5 DAY/WK FOR 50 WK (TOTAL DOSE 540 MG), Tumor Site: Type of Lesion: NASAL TURBINATES: ADENOCARCINOMA, SQUAMOUS CELL CARCINOMA): active; positive
carcinogen call (Species: RAT, Strain/Sex: WISTAR/MALE, Route: INTRAPERITONEAL, Dose: 3, 4 G/KG ONCE, Tumor Site: Type of Lesion: LUNG: ADENOMA, ADENOCARCINOMA): active; positive
carcinogen call (Species: RAT, Strain/Sex: WISTAR/MALE, Route: ORAL, Dose: 100, 500 PPM IN DRINKING WATER FOR 25 WK, Tumor Site: Type of Lesion: LUNG: ADENOMA, ADENOCARCINOMA, SQUAMOUS CELL CARCINOMA): active; positive
carcinogen call (Species: RAT, Strain/Sex: WISTAR/MALE, Route: ORAL, Dose: 100, 500 PPM IN DRINKING WATER FOR 52 WK, Tumor Site: Type of Lesion: LUNG: ADENOMA, ADENOCARCINOMA, SQUAMOUS CELL CARCINOMA, LIVER: HEMANGIOMA, HEPATOCELLULAR CARCINOMA): active; positive

[Ni+2].[OH-].[OH-]
carcinogen call (Species: RAT, Strain/Sex: WISTAR, Route: INTRAMUSCULAR IMPLANT, Tumor Site: Type of Lesion: IMPLANT SITE): active; positive
